The text below walks through data of article PMC7301841, “LuxR Solos in the Plant Endophyte Kosakonia sp. Strain KO348” (Applied and Environmental Microbiology, 2020).

Molecules are shown by their SMILES.

For assay [1], the target named is T1, LoxR (Kosakonia pseudosacchari, UniProt A0ABX4IX59).
T1 construct: gene BK796_01250; full-length, His6-tagged (pET22b NdeI/XhoI, tag at C-terminus by vector), E. coli BL21(DE3) pLysS; forward primer encodes N-terminus MQDTEFFT
The assay can be described thus: co-purification of complex (Ni-NTA, gel filtration), LC-MS/MS detection of coeluting AHL; ligand-dependent solubility. The note with it: expressed with 10 uM AHL, 16°C; pH 8.5. It counts as binding. For orientation: In gel filtration, larger molecules generally elute earlier.

Assay [2] has as its target T1, LoxR. The assay can be described thus: ligand-dependent solubility on expression in E. coli (total extract vs soluble fraction). It counts as cell-based. The note with it: expressed in E. coli in presence of AHL, 0.2 mM IPTG, 37°C overnight.

T1 sequence (A0ABX4IX59 entry or part of it): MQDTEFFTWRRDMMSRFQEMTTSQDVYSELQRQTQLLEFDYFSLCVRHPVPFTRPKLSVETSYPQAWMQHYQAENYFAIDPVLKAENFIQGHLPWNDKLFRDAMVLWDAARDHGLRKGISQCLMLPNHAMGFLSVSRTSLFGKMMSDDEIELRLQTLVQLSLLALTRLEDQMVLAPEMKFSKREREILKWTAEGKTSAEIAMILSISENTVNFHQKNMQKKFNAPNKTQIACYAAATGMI

Take `CCCCCCCCCC(=O)CC(=O)N[C@H]1CCOC1=O` [OC12-HSL]: at LoxR [1], the “co-purification of complex (Ni-NTA, gel filtration), LC-MS/MS detection of coelu” value is listed as “OC12-HSL was also able to solubilize LoxR (data not shown)”. In the case of `CCCC(O)CC(=O)N[C@H]1CCOC1=O` (stereo partly drawn) [OHC6-HSL], the “ligand-dependent solubility on expression in E. coli (total extract vs soluble f)” value on LoxR [2] was “LoxR was soluble when bound and insoluble when unbound to AHLs”. Still for that read-out and setting: under `CCCCCCCCCC(=O)N[C@H]1CCOC1=O` [C10-HSL] stands “LoxR was soluble when bound and insoluble when unbound to AHLs”; under `CCCC(=O)CC(=O)N[C@H]1CCOC1=O` [OC6-HSL], “LoxR was soluble when bound and insoluble when unbound to AHLs”.

For `CCCCCC(=O)N[C@H]1CCOC1=O` [C6-HSL], the “co-purification of complex (Ni-NTA, gel filtration), LC-MS/MS detection of coelu” value on LoxR [1] was “It was therefore concluded that AHLs solubilize and bind to LoxR”. With `CCCCCC(=O)CC(=O)N[C@H]1CCOC1=O` [OC8-HSL], at LoxR [2], the “ligand-dependent solubility on expression in E. coli (total extract vs soluble f)” value is “LoxR was soluble when bound and insoluble when unbound to AHLs”.
